From US20150259300A1, “4-(ORTHO)-FLUOROPHENYL-5-FLUOROPYRIMIDIN-2-YL AMINES CONTAINING A SULFONE GROUP” (BAYER PHARMA AKTIENGESELLSCHAFT, priority 2012, published 2015)

Key:
[1] = system: HeLa cells; assay: Proliferation assay (crystal violet), HeLa; format: cell-based; details: Homo sapiens, 96 h, 4 days, read-out: Inhibition of HeLa cell proliferation IC50
Method: (§1) Cultivated tumour cells (HeLa, human cervical tumour cells, ATCC CCL-2; NCI-H460, human non-small cell lung carcinoma cells, ATCC HTB-177; A2780, human ovarian carcinoma cells, ECACC #93112519; DU 145, hormone-independent human prostate carcinoma cells, ATCC HTB-81; HeLa-MaTu-ADR, multidrug-resistant human cervical carcinoma cells, EPO-GmbH Berlin; Caco-2, human colorectal carcinoma cells, ATCC HTB-37; B 16F10, mouse melanoma cells, ATCC CRL-6475) were plated at a density of 5,000 cells/well (DU145, HeLa-MaTu-ADR), 3,000 cells/well (NCI-H460, HeLa), 2,500 cells/well (A2780), 1,500 cells/well (Caco-2), or 1,000 cells/well (B16F10) in a 96-well multititer plate in 200 μL of their respective growth medium supplemented 10% fetal calf serum. After 24 hours, the cells of one plate (zero-point plate) were stained with crystal violet (see below), while the medium of the other plates was replaced by fresh culture medium (200 to which the test substances were added in various concentrations (0 μM, as well as in the range of 0.001-10 μM; the final concentration of the solvent dimethyl sulfoxide was 0.5%). The cells were incubated for 4 days in the presence of test substances. Cell proliferation was determined by staining the cells with crystal violet: the cells were fixed by adding 20 μl/measuring point of an 11% glutaric aldehyde solution for 15 minutes at room temperature. After three washing cycles of the fixed cells with water, the plates were dried at room temperature. The cells were stained by adding 100 μl/measuring point of a 0.1% crystal violet solution (pH 3.0). After three washing cycles of the stained cells with water, the plates were dried at room temperature. The dye was dissolved by adding 100 μl/measuring point of a 10% acetic acid solution. The extinction was determined by photometry at a wavelength of 595 nm. The change of cell number, in percent, was calculated by normalization of the measured values to the extinction values of the zero-point plate (=0%) and the extinction of the untreated (0 μm) cells (=100%). The IC50 values (inhibitory concentration at 50% of maximal effect) were determined by means of a 4 parameter fit.

[2] = target: T1, CDK9/CycT1 (Homo sapiens, UniProt P50750); assay: CDK9/CycT1 kinase assay (TR-FRET, Method 1a); format: biochemical; details: for IC50: Method 1a, 10 μM ATP; for Selectivity CDK9/CDK2: derived from Methods 1a. and 2.
T1 construct: Recombinant full-length His-tagged human CDK9 and CycT1; His; purchased Invitrogen PV4131; host or cells: insect cells
Description: 1a. CDK9/CyeT1 Kinase Assay:
CDK9/CycT1-inhibitory activity of compounds of the present invention was quantified employing the CDK9/CycT1 TR-FRET assay as described in the following paragraphs:
Recombinant full-length His-tagged human CDK9 and CycT1, expressed in insect cells and purified by Ni-NTA affinity chromatography, were purchased from Invitrogen (Cat. No PV4131). As substrate for the kinase reaction biotinylated peptide biotin-Ttds-YISPLKSPYKISEG (C-terminus in amid form) was used which can be purchased e.g. form the company JERINI Peptide Technologies (Berlin, Germany). For the assay 50 nl of a 100 fold concentrated solution of the test compound in DMSO was pipetted into a black low volume 384 well microtiter plate (Greiner Bio-One, Frickenhausen, Germany), 2 μl of a solution of CDK9/CycT1 in aqueous assay buffer [50 mM Tris/HCl pH 8.0, 10 mM MgCl2, 1.0 mM dithiothreitol, 0.1 mM sodium ortho-vanadate, 0.01% (v/v) Nonidet-P40 (Sigma)] were added and the mixture was incubated for 15 min at 22° C. to allow pre-binding of the test compounds to the enzyme before the start of the kinase reaction. Then the kinase reaction was started by the addition of 3 μl of a solution of adenosine-tri-phosphate (ATP, 16.7 μM=>final conc. in the 5 μl assay volume is 10 μM) and substrate (1.67 μM=>final conc. in the 5 μl assay volume is 1 μM) in assay buffer and the resulting mixture was incubated for a reaction time of 25 min at 22° C. The concentration of CDK9/CycT1 was adjusted depending of the activity of the enzyme lot and was chosen appropriate to have the assay in the linear range, typical concentrations were in the range of 1 μg/ml. The reaction was stopped by the addition of 5 μl of a solution of TR-FRET detection reagents (0.2 μM streptavidine-XL665 [Cisbio Bioassays, Codolet, France] and 1 nM anti-RB(pSer807/pSer811)-antibody from BD Pharmingen [#558389] and 1.2 nM LANCE EU-W1024 labeled anti-mouse IgG antibody [Perkin-Elmer, product no. AD0077]) in an aqueous EDTA-solution (100 mM EDTA, 0.2% (w/v) bovine serum albumin in 100 mM HEPES/NaOH pH 7.0).
The resulting mixture was incubated 1 h at 22° C. to allow the formation of complex between the phosphorylated biotinylated peptide and the detection reagents. Subsequently the amount of phosphorylated substrate was evaluated by measurement of the resonance energy transfer from the Eu-chelate to the streptavidine-XL. Therefore, the fluorescence emissions at 620 nm and 665 nm after excitation at 350 nm was measured in a HTRF reader, e.g. a Rubystar (BMG Labtechnologies, Offenburg, Germany) or a Viewlux (Perkin-Elmer). The ratio of the emissions at 665 nm and at […] was taken as the measure for the amount of phosphorylated substrate. The data were normalised (enzyme reaction without inhibitor=0% inhibition, all other assay components but no enzyme=100% inhibition).

[3] = system: DU145 cells; assay: Proliferation assay (crystal violet), DU145; format: cell-based; details: Homo sapiens, DU-145, 96 h; DU145, 4 days; read-out: Inhibition of DU145 cell proliferation IC50
Method: as §1, with “After three washing cycles of the fixed cells with water, the plates were dried at room temperature. The cells were stained by adding 100 μl/measuring point of a 0.1% crystal violet solution (pH 3.0). After three washing cycles of the stained cells with water, the plates were dried at room temperature. The dye was dissolved by adding 100 μl/measuring point of a 10% acetic acid solution. The extinction was determined by photometry at a wavelength of 595 nm. The change of cell number, in percent, was calculated by normalization of the measured values to the extinction values of the zero-point plate (=0%) and the extinction of the untreated (0 μm) cells (=100%). The IC50 values (inhibitory concentration at 50% of maximal effect) were determined by means of a 4 parameter fit.” left out

[4] = system: B16F10 cells; assay: Proliferation assay (crystal violet), B16F10; format: cell-based; details: Mus musculus, B16-F10, 96 h; B16F10, 4 days; read-out: Inhibition of B16F10 cell proliferation IC50
Method: as §1, with “After three washing cycles of the fixed cells with water, the plates were dried at room temperature. The cells were stained by adding 100 μl/measuring point of a 0.1% crystal violet solution (pH 3.0). After three washing cycles of the stained cells with water, the plates were dried at room temperature. The dye was dissolved by adding 100 μl/measuring point of a 10% acetic acid solution. The extinction was determined by photometry at a wavelength of 595 nm. The change of cell number, in percent, was calculated by normalization of the measured values to the extinction values of the zero-point plate (=0%) and the extinction of the untreated (0 μm) cells (=100%). The IC50 values (inhibitory concentration at 50% of maximal effect) were determined by means of a 4 parameter fit.” left out

[5] = system: Caco-2 cells; assay: Proliferation assay (crystal violet), Caco-2; format: cell-based; details: Homo sapiens, 96 h; Caco-2, 4 days; read-out: Inhibition of Caco-2 cell proliferation IC50
Method: as §1, with “After three washing cycles of the fixed cells with water, the plates were dried at room temperature. The cells were stained by adding 100 μl/measuring point of a 0.1% crystal violet solution (pH 3.0). After three washing cycles of the stained cells with water, the plates were dried at room temperature. The dye was dissolved by adding 100 μl/measuring point of a 10% acetic acid solution. The extinction was determined by photometry at a wavelength of 595 nm. The change of cell number, in percent, was calculated by normalization of the measured values to the extinction values of the zero-point plate (=0%) and the extinction of the untreated (0 μm) cells (=100%). The IC50 values (inhibitory concentration at 50% of maximal effect) were determined by means of a 4 parameter fit.” left out

[6] = system: NCI-H460 cells; assay: Proliferation assay (crystal violet), NCI-H460; format: cell-based; details: Homo sapiens, 96 h; NCI-H460, 4 days; read-out: Inhibition of H460 cell proliferation IC50
Method: as §1, with “After three washing cycles of the fixed cells with water, the plates were dried at room temperature. The cells were stained by adding 100 μl/measuring point of a 0.1% crystal violet solution (pH 3.0). After three washing cycles of the stained cells with water, the plates were dried at room temperature. The dye was dissolved by adding 100 μl/measuring point of a 10% acetic acid solution. The extinction was determined by photometry at a wavelength of 595 nm. The change of cell number, in percent, was calculated by normalization of the measured values to the extinction values of the zero-point plate (=0%) and the extinction of the untreated (0 μm) cells (=100%). The IC50 values (inhibitory concentration at 50% of maximal effect) were determined by means of a 4 parameter fit.” left out

[7] = system: HeLa-MaTu-ADR cells; assay: Proliferation assay (crystal violet), HeLa-MaTu-ADR; format: cell-based; details: Homo sapiens, 96 h, 4 days, read-out: Inhibition of HeLa-MaTu-ADR cell proliferation IC50
Method: as §1, with “After three washing cycles of the fixed cells with water, the plates were dried at room temperature. The cells were stained by adding 100 μl/measuring point of a 0.1% crystal violet solution (pH 3.0). After three washing cycles of the stained cells with water, the plates were dried at room temperature. The dye was dissolved by adding 100 μl/measuring point of a 10% acetic acid solution. The extinction was determined by photometry at a wavelength of 595 nm. The change of cell number, in percent, was calculated by normalization of the measured values to the extinction values of the zero-point plate (=0%) and the extinction of the untreated (0 μm) cells (=100%). The IC50 values (inhibitory concentration at 50% of maximal effect) were determined by means of a 4 parameter fit.” left out

T1 sequence (P50750 whole entry): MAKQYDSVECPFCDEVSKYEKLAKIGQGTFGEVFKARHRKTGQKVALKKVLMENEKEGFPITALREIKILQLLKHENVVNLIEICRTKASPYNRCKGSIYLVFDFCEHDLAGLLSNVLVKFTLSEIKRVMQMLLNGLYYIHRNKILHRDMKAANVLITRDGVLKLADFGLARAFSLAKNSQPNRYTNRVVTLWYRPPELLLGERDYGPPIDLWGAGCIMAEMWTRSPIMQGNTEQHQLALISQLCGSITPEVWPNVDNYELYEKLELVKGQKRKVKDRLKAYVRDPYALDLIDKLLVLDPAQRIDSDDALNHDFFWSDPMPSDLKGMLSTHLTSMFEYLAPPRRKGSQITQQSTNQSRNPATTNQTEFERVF
T1 sequence (O60563 whole entry partner): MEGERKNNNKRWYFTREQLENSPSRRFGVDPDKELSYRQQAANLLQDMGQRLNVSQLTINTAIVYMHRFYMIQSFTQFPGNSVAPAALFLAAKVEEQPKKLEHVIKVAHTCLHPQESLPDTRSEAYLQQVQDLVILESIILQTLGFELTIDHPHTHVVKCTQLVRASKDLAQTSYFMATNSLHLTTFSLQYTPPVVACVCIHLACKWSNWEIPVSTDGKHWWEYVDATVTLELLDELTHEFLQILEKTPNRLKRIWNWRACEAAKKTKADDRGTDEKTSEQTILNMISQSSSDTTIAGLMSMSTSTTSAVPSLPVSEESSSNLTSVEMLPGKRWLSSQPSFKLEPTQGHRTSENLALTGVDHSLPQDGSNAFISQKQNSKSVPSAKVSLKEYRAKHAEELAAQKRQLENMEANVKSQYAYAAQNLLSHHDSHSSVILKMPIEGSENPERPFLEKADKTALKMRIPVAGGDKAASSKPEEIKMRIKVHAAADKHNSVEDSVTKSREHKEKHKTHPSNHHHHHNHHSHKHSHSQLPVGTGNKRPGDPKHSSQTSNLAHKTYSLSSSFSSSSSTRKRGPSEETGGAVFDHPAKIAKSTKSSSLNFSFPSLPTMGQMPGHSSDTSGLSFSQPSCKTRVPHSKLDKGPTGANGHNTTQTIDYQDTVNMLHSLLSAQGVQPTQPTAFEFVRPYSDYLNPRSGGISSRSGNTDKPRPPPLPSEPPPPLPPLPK

| Structure (SMILES) | IC50 [1] [nM] | IC50 [2] [nM] | Selectivity CDK9/CDK2 [2] | IC50 [3] [nM] | IC50 [4] [nM] | IC50 [5] [nM] | IC50 [6] [nM] | IC50 [7] [nM] |
| --- | --- | --- | --- | --- | --- | --- | --- | --- |
| CC(C)S(=O)(=O)Cc1cccc(Nc2ncc(F)c(-c3ccc(F)cc3F)n2)c1 [Example 2, 4-(2,4-Difluorophenyl)-5-fluoro-N-{3-[(propan-2-ylsulfonyl)methyl]phenyl}pyrimidin-2-amine] | 3000 | 50 | 24 |  |  |  |  |  |
| CC(C)(C)S(=O)(=O)Cc1cccc(Nc2ncc(F)c(-c3ccc(F)cc3F)n2)c1 [Example 3, N-{3-[(tert-Butylsulfonyl)methyl]phenyl}-4-(2,4-difluorophenyl)-5-fluoropyrimidin-2-amine] | 3000 | 110 | 10 |  |  |  |  |  |
| COCCS(=O)(=O)Cc1cccc(Nc2ncc(F)c(-c3ccc(F)cc3F)n2)c1 [Example 4, 4-(2,4-Difluorophenyl)-5-fluoro-N-(3-{[(2-methoxyethyl)sulfonyl]methyl}phenyl)pyrimidin-2-amine] |  | 130 | 20 |  |  |  |  |  |
| CS(=O)(=O)Cc1cccc(Nc2ncc(F)c(-c3ccc(F)cc3F)n2)c1 [Example 5, 4-(2,4-Difluorophenyl)-5-fluoro-N-{3-[(methylsulfonyl)methyl]phenyl}pyrimidin-2-amine] |  | 51 | 9.1 |  |  |  |  |  |
| CS(=O)(=O)Cc1cc(Nc2ncc(F)c(-c3ccc(F)cc3F)n2)cc(S(F)(F)(F)(F)F)c1 [Example 6, 4-(2,4-Difluorophenyl)-5-fluoro-N-{3-[(methylsulfonyl)methyl]-5-(pentafluoro-λ^6-sulfanyl)phenyl}pyrimidin-2-amine] | 617 | 14 | 122 | 352 | 951 | 382 | 386 | 220 |
| CCCS(=O)(=O)Cc1cccc(Nc2ncc(F)c(-c3ccc(F)cc3F)n2)c1 [Example 8, 4-(2,4-difluorophenyl)-5-fluoro-N-{3-[(propylsulfonyl)methyl]phenyl}pyrimidin-2-amine] | 3000 | 39 | 15 |  |  |  |  |  |
| O=S(=O)(Cc1cccc(Nc2ncc(F)c(-c3ccc(F)cc3F)n2)c1)C1CC1 [Example 9, N-{3-[(Cyclopropylsulfonyl)methyl]phenyl}-4-(2,4-difluorophenyl)-5-fluoropyrimidin-2-amine] | 3000 | 13 | 32 |  |  |  |  |  |
| CS(=O)(=O)Cc1cc(F)cc(Nc2ncc(F)c(-c3ccc(F)cc3F)n2)c1 [Example 10, 4-(2,4-Difluorophenyl)-5-fluoro-N-{3-fluoro-5-[(methylsulfonyl)methyl]phenyl}pyrimidin-2-amine] | 3000 | 130 | 28 |  |  |  |  |  |
| CS(=O)(=O)Cc1cc(F)cc(Nc2ncc(F)c(-c3cc(F)c(F)cc3F)n2)c1 [Example 11, 5-Fluoro-N-{3-fluoro-5-[(methylsulfonyl)methyl]phenyl}-4-(2,4,5-trifluorophenyl)pyrimidin-2-amine] | 2960 | 74 | >270 |  |  |  |  |  |
| CS(=O)(=O)Cc1cc(F)cc(Nc2ncc(F)c(-c3ccc(F)c(F)c3F)n2)c1 [Example 12, 5-fluoro-N-{3-fluoro-5-[(methylsulfonyl)methyl]phenyl}-4-(2,3,4-trifluorophenyl)pyrimidin-2-amine] | 1000 | 25 | 14 |  |  |  |  |  |
| CCCS(=O)(=O)Cc1cc(F)cc(Nc2ncc(F)c(-c3ccc(F)cc3F)n2)c1 [Example 13, 4-(2,4-Difluorophenyl)-5-fluoro-N-{3-fluoro-5-[(propylsulfonyl)methyl]phenyl}pyrimidin-2-amine] | 3000 | 13 | 44 |  |  |  |  |  |
